Experimental data: US20050101618A1, “Selective erbB2 inhibitor/anti-erbB antibody combinations in the treatment of cancer” (Pfizer Inc, priority 2003, published 2005)

How the values were obtained:
[1] = Whole blood pharmacokinetics of agent 182 in BT-474 tumor-bearing mice (LC-MS/MS); assay type: in vivo; conditions: for Cmax: mouse; for Cave0-2 h of Agent 182: day 28
Description: (§1) Whole blood samples (˜50 μl) were collected at 0.5, 1, 2, 4 & 8 h post-dose on day 28 for PK analysis as described below. Tumors were isolated 0.5 h post-dose on day 28 for PD analysis by ELISA.
Blood Sample Analysis: Aliquots (100 μL) of whole blood were diluted with 100 μL acetonitrile (25%) containing an internal standard (CP-702,453, 0.5 μg/ml). Samples were extracted with methyl-tert-butyl ether (MTBE) and 0.1M sodium hydroxide by liquid-liquid extraction using a 96-well technology. After brief vortexing, samples were centrifuged (3000 rpm for 10 min) and the supernatant was transferred into a 96-well plate and evaporated to dryness at 40° C. under a slow stream of nitrogen gas. The residue was reconstituted with 200 μL of 25% acetonitrile and vortexed for approximately 2 min.
The mobile phase was delivered as 90% 10 mM ammonium acetate with 0.1% formic acid and 10% acetonitrile for the first 1 min followed by a linear gradient from 10% to 90% acetonitrile over 1 min. Then the mobile phase was delivered isocratically at 90% acetonitrile for 1 min before a subsequent gradient back to 10% acetonitrile over 0.1 min. The column was then allowed to re-equilibrate at 90% 10 mM ammonium acetate with 0.1% formic acid and 10% acetonitrile for 1.0 min before the next sample injection.
Data collection and integration were accomplished using Analyst (version 1.2). The ratio of peak area responses of drug relative to internal standard was used to construct a standard curve using a linear least squares regression with a 1/x weighting. The dynamic range of the assay was 1.0 to 1000 ng/mL. The performance of the assay was monitored by inclusion of quality control samples prepared in mouse whole blood from a separate weighing. Further details are located in notebook #62874.
PK Data Calculation: Pharmacokinetic parameters were determined by the noncompartmental methods using WinNonLin™, version 3.2. The maximum whole blood concentration (Cmax) and the time at which this concentration was achieved (Tmax) were directly taken from the raw data. Area under the whole blood concentration versus time curve (AUC) was calculated using linear trapezoidal approximation. For estimation of the means and pharmacokinetic parameters, concentrations at the 0 hr and those <LLOQ (1 ng/mL) were assumed to be 0 ng/mL. The means were calculated only if more than 50% of the data exceeded LLOQ of the assay.

[2] = tested on: BT-474 human breast adenocarcinoma; experiment: BT-474 xenograft tumor growth inhibition in athymic female mice; assay type: in vivo
Description: The activity of the compounds of formula 1, in vivo, can be determined by the amount of inhibition of tumor growth by a test compound relative to a control. The tumor growth inhibitory effects of various compounds are measured according to the method of Corbett T. H., et al., “Tumor Induction Relationships in Development of Transplantable Cancers of the Colon in Mice for Chemotherapy Assays, with a Note on Carcinogen Structure”, Cancer Res., 35, 2434-2439 (1975) and Corbett T. H., et al., “A Mouse Colon-tumor Model for Experimental Therapy”, Cancer Chemother. Rep. (Part 2)”, 5, 169-186 (1975), with slight modifications. Tumors are induced in the left flank by subcutaneous (sc) injection of 5 million log phase cultured tumor cells (BT-474 human breast adenocarcinoma) suspended in Matrigel (1:1 in PBS). […] Rep., 3, 1-104 (1972). Results are expressed as percent inhibition, according to the formula: Inhibition (%)=(TuWcontrol−TuWtest)/TuWcontrol×100%. The flank site of tumor implantation provides reproducible dose/response effects for a variety of chemotherapeutic agents, and the method of measurement (tumor diameter) is a reliable method for assessing tumor growth rates.
Statistical Analysis: The statistical analysis of tumor growth was done using SAS Version 8, PROC GLM by Non-clinical statistical group.

[3] = Body weight and tolerability in BT-474 tumor-bearing mice
Description: Cells were inoculated SC (5 million cells/animal) into female athymic mice. […] The tumor measurements and body weight changes were obtained on days 1, 5, 8, 12, 15, 19, 22, 26 and 28. Tumor volume was calculated by the following formula: Tumor volume (mm^3)=(W×W)/2×L (L=length & W=width).
• Values given represent the average tumor volume (mm^3) ±SE; Values in parenthesis are the average body weight (g). • % Growth Inhibition=[Tumor volume on day 28 of treated group (mm^3)×100/Tumor volume on day 28 of vehicle group (mm^3)]−100 • % Regression=[Tumor volume on day 28 (mm^3)×100/Tumor volume on day 1(mm^3)]−100

[4] = target: T1, erbB2-autophosphorylation (p-erbB2) (Homo sapiens, UniProt P04626); experiment: Tumor p-erbB2 reduction (PD) by ELISA in BT-474 tumor-bearing mice; assay type: in vivo; conditions: 0.5 hr after dosing on day 28
T1 construct: endogenous in cells; host or cells: BT-474 human breast adenocarcinoma cells grown as subcutaneous xenografts in female athymic mice
T1 sequence (P04626 23-1255): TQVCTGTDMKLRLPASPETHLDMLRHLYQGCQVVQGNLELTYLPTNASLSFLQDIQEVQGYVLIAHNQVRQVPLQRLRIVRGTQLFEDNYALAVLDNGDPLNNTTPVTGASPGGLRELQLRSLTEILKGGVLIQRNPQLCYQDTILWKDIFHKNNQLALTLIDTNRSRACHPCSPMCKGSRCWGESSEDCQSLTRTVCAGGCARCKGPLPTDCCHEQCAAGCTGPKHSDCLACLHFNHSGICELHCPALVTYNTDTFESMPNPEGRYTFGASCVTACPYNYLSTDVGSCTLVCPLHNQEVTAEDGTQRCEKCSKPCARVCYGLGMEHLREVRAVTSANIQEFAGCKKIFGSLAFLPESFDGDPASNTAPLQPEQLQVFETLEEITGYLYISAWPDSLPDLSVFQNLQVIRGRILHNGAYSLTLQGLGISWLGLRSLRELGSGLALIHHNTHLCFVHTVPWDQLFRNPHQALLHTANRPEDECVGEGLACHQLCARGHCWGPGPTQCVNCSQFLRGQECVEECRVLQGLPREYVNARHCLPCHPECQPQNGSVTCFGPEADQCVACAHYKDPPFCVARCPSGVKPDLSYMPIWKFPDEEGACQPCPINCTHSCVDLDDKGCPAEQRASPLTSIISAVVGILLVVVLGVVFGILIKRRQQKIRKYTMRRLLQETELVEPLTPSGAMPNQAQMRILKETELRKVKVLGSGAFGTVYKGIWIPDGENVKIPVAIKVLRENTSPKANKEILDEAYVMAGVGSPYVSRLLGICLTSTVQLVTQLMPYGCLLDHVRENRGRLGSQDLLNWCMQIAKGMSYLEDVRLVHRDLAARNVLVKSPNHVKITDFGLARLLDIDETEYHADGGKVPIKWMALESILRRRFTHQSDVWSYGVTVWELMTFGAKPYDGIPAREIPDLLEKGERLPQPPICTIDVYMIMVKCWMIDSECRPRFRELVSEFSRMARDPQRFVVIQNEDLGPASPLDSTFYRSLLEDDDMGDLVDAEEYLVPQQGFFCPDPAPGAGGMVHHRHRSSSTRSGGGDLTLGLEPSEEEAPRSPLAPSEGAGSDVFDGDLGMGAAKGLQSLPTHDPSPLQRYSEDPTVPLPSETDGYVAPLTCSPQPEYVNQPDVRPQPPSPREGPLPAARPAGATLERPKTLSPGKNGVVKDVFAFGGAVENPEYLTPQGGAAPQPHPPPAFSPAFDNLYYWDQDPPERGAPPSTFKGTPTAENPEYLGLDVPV
Description: as §1
The p-erbB2 levels, i.e., the level of the phosphorylated form of erbB2, were also determined in tumor samples of all groups at 0.5 hr post-dosing on day 28 (Table 5).

Structure (SMILES): COCC(=O)NC/C=C/c1ccc2ncnc(Nc3ccc(Oc4ccc(C)nc4)c(C)c3)c2c1 [Agent 182, E-2-Methoxy-N-(3-{4-[3-methyl-4-(6-methyl-pyridin-3-yloxy)-phenylamino]-quinazolin-6-yl}-allyl)-acetamide]
- Cmax ([1]; female, athymic, whole blood, po, 25 mg/kg): 365 ng/mL
- Cmax ([1]; female, athymic, whole blood, po, 50 mg/kg): 2440 ± 740 ng/mL
- Cmax ([1]; in vivo, 25 mg/kg group, earlier observations): 417 to 967 ng/mL
- Cave0-2 h of Agent 182 ([1]; whole blood, Agent 182 25 mg/kg PO QD): 186 ± 71 ng/mL
- Cave0-2 h of Agent 182 ([1]; whole blood, Agent 182 50 mg/kg PO QD): 1050 ± 330 ng/mL
- % Growth inhibition ([2]; 28 days, Agent 182 50 mg/kg PO QD): 40%
- Tumor volume Day 28 ([2]; Agent 182 25 mg/kg PO QD): 327 ± 45 mm^3
- Tumor volume Day 28 ([2]; Agent 182 50 mg/kg PO QD): 246 ± 36 mm^3
- Efficacy against BT-474 tumors which over-express erbB2 ([2]; background statement): efficacious
- Average body weight Day 1 ([3]; Agent 182 25 mg/kg PO QD): (21) g
- Average body weight Day 1 ([3]; Agent 182 50 mg/kg PO QD): (23) g
- Average body weight Day 28 ([3]; Agent 182 25 mg/kg PO QD): (23) g
- Average body weight Day 28 ([3]; Agent 182 50 mg/kg PO QD): (25) g
- % Reduction of erbB2-autophosphorylation ([4]; Agent 182 25 mg/kg PO QD, 25 mg/kg): 16 ± 5 (N = 3) %
- % Reduction of erbB2-autophosphorylation ([4]; Agent 182 25 mg/kg PO QD, listed as agent 182, 25 mg/kg): Approximately 16%
- % Reduction of erbB2-autophosphorylation ([4]; Agent 182 50 mg/kg PO QD): 57 ± 5 (N = 4) %
